Laboratory results reported in patent US20070099869A1, “Association product of α-glycosyl α,α-trehalose with ionic metal compound” (KABUSHIKI KAISHA HAYASHIBARA SEIBUTSU KAGAKU KENKYUJO, priority 2003, published 2007).

Experiments:
[1] = Inhibition of deterioration (browning) of L-ascorbic acid in the presence of metal ion; format: physicochemical; details: 50° C., sealed vial
Method: L-Ascorbic acid deteriorates rapidly by the oxidative degradation in the presence of iron and copper ions and causes browning. The effects of α-maltosyl α,α-trehalose on the phenomenon were investigated as follows. Five kinds of aqueous solutions, having respective compositions described in Table 8, were prepared. Aqueous solutions of L-ascorbic acid alone or L-ascorbic acid and metal ion compounds were used as controls. The test solutions were prepared by adding α-maltosyl α,α-trehalose to the control solutions. Ten milliliters of each of these test and control solutions were placed in different 20 ml-vials and sealed. The vials were preserved at 50° C. […] After the preservation, the degree of coloring of each solution was measured. In the case of the control solutions containing L-ascorbic acid alone, the degrees of coloring were measured at the preservation periods of 40 hours and 96 hours. The absorbance at 420 nm (within the visible light range) of each sample was measured for the degree of coloring.

[2] = Hygroscopicity (deliquescence) test at relative humidity 52.8%; format: physicochemical
Method: In order to compare the hygroscopicity (deliquescent property) of an associated complex of α-maltosyl α,α-trehalose and calcium chloride with that of a control, calcium chloride which is known to have a high deliquescent property, the following hygroscopicity test was carried out. The crystalline associated complexes of α-maltosyl α,α-trehalose and calcium chloride, prepared according to the method in Experiment 2-1 and calcium chloride dehydrate, were used as test samples. The moisture content (weight of moisture per one gram of the sample) of each sample was measured by conventional drying loss method. […] The amount of moisture per one gram of each sample after 1 to 7 days preservation was calculated based on the assumption that the increased amount measured to that of 0 day preservation was the amount of moisture absorbed by each sample.

[3] = Method: The changes of solubility in water of metal ion compounds were examined under coexistence of α-maltosyl α,α-trehalose and metal ion compounds. α-Maltosyl α,α-trehalose prepared by the method in Experiment 1 was used for the tests. […] Solutions prepared by dissolving the same amount of metal ion compounds only were prepared as controls. After dissolving the contents completely, all the beakers were allowed to stand at room temperature (25° C.) for 24 hours. Successively, precipitation of crystals was judged by macroscopic observation. In the case of precipitating crystals, the formed crystals were collected and analyzed for components by the conventional method.
[4] = Inhibition of formation of calcium phosphate precipitate (solubilized calcium); format: physicochemical; details: calcium chloride solution with saccharide mixed with phosphate solution pH 6.8, 37° C., three hours, supernatant, n=3
Method: When phosphate ion is added to a calcium chloride aqueous solution, calcium phosphate, an insoluble salt, is formed from calcium ion and phosphate ion and then precipitated. Effects of α-maltosyl α,α-trehalose and other saccharides on the phenomenon were investigated as follows. A calcium chloride aqueous solution was prepared by the steps of adding 3.68 grams of calcium chloride dihydrate to deionized water to dissolve therein and adding deionized water to the solution to give a total volume of 200 ml. α-Maltosyl α,α-trehalose, prepared by the method in Experiment 1, maltotetraose, and anhydrous crystalline sucrose were used as saccharides for the test. […]
Twenty-six grams, d.s.b., of either of the saccharides for the test were added to five milliliters of the above calcium chloride solution and dissolved by adding additional deionized water. […] The calcium concentration (the solubilized calcium concentration) of each supernatant was measured using “ZEEMAN 5100”, an atomic adsorption-photometer commercialized by Perkin-Elmar Japan Co. Ltd., Kanagawa, Japan. […]
The above procedure was carried out for individual each sample (three kinds of saccharides and control) for three times and the average value of the solubilized calcium concentration was calculated.

In the case of O=C1O[C@H]([C@@H](O)CO)C(O)=C1O [14.8 mM AsA, L-ascorbic acid], the “Degree of coloring (Abs. at 420 nm), preserved for 40 hrs” value ([1]; 40 hrs) is reported as 0.012 and the “Degree of coloring (Abs. at 420 nm), preserved for 96 hrs” value ([1]; 96 hrs) is reported as 0.166.

For O.O.[Ca+2].[Cl-].[Cl-] [CaCl2•2H2O, calcium chloride dihydrate], the “Moisture content/g-sample, 1 day” value ([2]; 25° C., relative humidity 52.8%, 1 day) was 0.319 g, the “Moisture content/g-sample, 2 days” value ([2]; 25° C., relative humidity 52.8%, 2 days) was 0.359 g and the “Moisture content/g-sample, 3 days” value ([2]; 25° C., relative humidity 52.8%, 3 days) was 0.405 g. The “Moisture content/g-sample, 7 days” value ([2]; 25° C., relative humidity 52.8%, 7 days) was 0.430 g and the “Moisture content/g-sample, 0 day” value ([2]; before preservation, drying loss method) was 0.245 g.

In the case of O.O.O.O.[Cl][Mn][Cl] [Manganese chloride, manganese chloride tetrahydrate], the “Solubility in water in the presence of α-maltosyl α,α-trehalose” value [3] is reported as “remarkably improved”.

For OC[C@H]1O[C@H](O[C@H]2[C@H](O)[C@@H](O)[C@@H](O[C@H]3[C@H](O)[C@@H](O)[C@@H](O[C@H]4[C@H](O)[C@@H](O)C(O)O[C@@H]4CO)O[C@@H]3CO)O[C@@H]2CO)[C@H](O)[C@@H](O)[C@@H]1O (stereo partly shown) [Maltotetraose, maltotetraose], the “Concentration of solubilized calcium (average ± standard deviation)” value [4] was 6910 ± 830 ng/mL.

For O.O.O.O.O.O.[Cl-].[Cl-].[Sr+2] [Strontium chloride, Strontium chloride hexahydrate], the “Precipitation of crystal, in the absence of α-maltosyl α,α-trehalose” value ([3]; 0.1 mole metal ion compound only in 30 g water, dissolved by heating, 25° C. for 24 hours, macroscopic observation) was “Precipitated”.
